The test system of one data set is LaPC4. Nature of the data set: MTT cytotoxicity assay, LaPC4. It counts as cell-based. The settings on record: Homo sapiens, LaPC4, 72 h. The protocol: (§1) All cell lines were obtained from the American Type Culture Collection (ATCC) and cultured in the specified medium supplemented with 10% fetal bovine serum, 100 IU/mL penicillin, and 100 μg/mL streptomycin at 37°C in a humidified 5% CO2/95% air incubator. Synthesis of new compounds is described in S1 File, and >95% purity of RA475, Up284 and its analogs were confirmed by NMR and MS. To assess drug cytotoxicity, cells were seeded at 2,500 cells/well (10,000 cells/well for MM lines) in 100 μL medium in 96-well plate as triplicates and after 24 h treated with compounds for a further 72 h. To assess cytotoxicity, the cells were incubated for 2 h at 37°C according to the manufacturer’s protocol with the Thiazolyl Blue Tetrazolium Bromide (20 μL/well of 5 mg/mL stock solution in water) (Sigma, M5655) and A570 measured using a Benchmark Plus microplate spectrophotometer (BIO-RAD). IC50 was estimated using Graphpad Prism 7 software.
A general note: Tetrazolium dyes change colour on reduction, which living cells bring about.

In the next data set the test system is TC1-Ova. Nature of the data set: MTT cytotoxicity assay, TC1-Ova. The data set is classed as cell-based. Particulars: 72 h. The protocol:
as §1

For a further data set, the system named is B6-Ova. Nature of the data set: MTT cytotoxicity assay, B6-Ova. The data set is classed as cell-based. The settings on record: 72 h. Here is the method: as §1
The subject of the next data set is PACS. Nature of the data set: MTT cytotoxicity assay, PACS. The data set is classed as cell-based. The settings on record: 72 h. Here is the method: as §1
In another data set the test system is CT26. Nature of the data set: MTT cytotoxicity assay, CT26. The data set is classed as cell-based. Particulars: Mus musculus, CT26, 72 h. The protocol:
as §1

The subject of another data set is PEA2. The experiment in a line: MTT cytotoxicity assay, PEA2. It counts as cell-based. Particulars: Homo sapiens. The protocol:
as §1
Modifications of Up284 were sought to improve its drug-like properties without significant compromise of its activity in vivo, and several new compounds were synthesized (S1 File). Based on our prior studies of its pharmacophore, the central ring nitrogen was the most logical for addition of charged moieties, including RA475 and RA484. We also examined a change to either 3,4 spiro rings (RA477, RA479), or addition of 3-Fluoro substitutions (RA482) (S1 File). Our focus is developing iRPN13 to treat ovarian cancer resistant to standard of care drug regimens.

The subject of another data set is Calu-1. The experiment in a line: MTT cytotoxicity assay, Calu-1. It counts as cell-based. The settings on record: Homo sapiens, Calu-1, 72 h. Here is the method:
as §1

A further data set has as its system HeLa. Nature of the data set: MTT cytotoxicity assay, HeLa. It counts as cell-based. The settings on record: Homo sapiens, 72 h. The protocol: as §1
Data set [1] in a line: Kinetic aqueous solubility in PBS pH 7.4. It counts as physicochemical. Particulars: 25 °C, pH 7.4, aqueous buffer, kinetic from dmso stock. Here is the method:
Kinetic solubility assays were performed according to Enamine’s aqueous solubility SOP. Briefly, using a 20 mM stock solution of the compound in 100% DMSO dilutions were prepared to a theoretical concentration of 400 μM in duplicates in phosphate-buffered saline pH 7.4 (138 mM NaCl, 2.7 mM KCl, 10 mM K-phosphate) with 2% final DMSO. The experimental compound dilutions in PBS were further allowed to equilibrate at 25°C on a thermostatic shaker for two hours and then filtered through HTS filter plates using a vacuum manifold. The filtrates of test compounds were diluted 2-fold with acetonitrile with 2% DMSO before measuring. In parallel, using a 20 mM stock solution of the compound in 100% DMSO dilutions were prepared to theoretical concentrations of 0 μM (blank), 10 μM, 25 μM, 50 μM, 100 μM, and 200 μM in 50% acetonitrile/PBS with 2% final DMSO to generate calibration curves. Ondansetron was used as a reference compound to control proper assay performance. 200 μL of each sample was transferred to a 96-well plate and measured in the 230–550 nm range with a 5 nm step. The concentrations of compounds in PBS filtrate are calculated using a dedicated Microsoft Excel calculation script. Proper absorbance wavelengths for calculations are selected for each compound manually based on absorbance maximums (absolute absorbance unit values for the minimum and maximum concentration points within the 0–3 OD range). Each final dataset is visually evaluated by the operator, and goodness of fit (R^2) is calculated for each calibration curve.

For a further data set, the target named is hERG potassium channel (Homo sapiens, UniProt Q12809). Nature of the data set: hERG Thallium Flux FLIPR-Based Assay. Here is the method:
Supplementary file pone.0305710.s008.tif: S8 Fig hERG inhibition in vitro. […] Concentration range of 0.023–50 μM (8 points, 3-fold serial dilutions) B) Dose-response curve for RA475. Concentration range of 0.045–100 μM (8 points, 3-fold serial dilutions). C) Dose-response curve for Up284. Concentration range of 0.045–100 μM (8 points, 3-fold serial dilutions). (TIF)
On the technique in general: hERG is a cardiac potassium channel; its block is linked to QT prolongation.

A short description of data set [2]: Tissue distribution in CD1 mice. Particulars: 24 h; for Concentration in brain: one IV dose 40 mg/kg. It counts as in vivo, mouse. Here is the method: For the stability studies and biodistribution studies, plasma or tissue homogenate (20 μL) was extracted with 100 μL of acetonitrile containing the internal standard RA413S (a structural analogue) at 10 ng/mL. Tissue homogenates were prepared at a concentration of 200 mg/mL in PBS. After vortex-mixing and centrifuging for 5 min at 2500 xg, 10 μL of the supernatant was injected into LC-MS/MS system. […] Mobile phase A was water containing 0.1% formic acid, and mobile phase B was acetonitrile containing 0.1% formic acid. The gradient started with mobile phase B at 20% and was held at 20% for 0.5 minutes with a flow rate of 0.3 mL/min, then increased to 100% over 0.5 minutes and held for 2.0 minutes, and finally returned back to 20% mobile phase B and allowed to equilibrate until 4.1minutes. An AB Sciex 5500 triple quadrupole mass spectrometer operated in positive electrospray ionization mode was used for the detection of RA475. The lower limit of quantitation (LLOQ) in plasma was 10 ng/mL.
In a separate experiment to assess drug distribution, CD1 mice were injected with one dose of RA475 (40 mg/kg, IV) and tissues collected after 4 h and 24 h. RA475 levels were analyzed in all major tissues (brain, colon, heart, kidney, liver, lung and spleen) by LC-MS/MS.
Fig 5 Tissue distribution of RA475 and Up284 in mice. Female CD1 mice (n = 3/drug) were treated with one IV dose of A) RA475 (40mg/kg) or B) Up284 (40mg/Kg) and euthanized after 24 h with collection of plasma and tissues including brain, colon, heart, kidney, liver, lung and spleen. RA475 and Up284 concentrations in tissue samples were analyzed by LC-MS/MS. TEXT PRINTED IN THE PICTURE: (A) RA475: RA475 Concentration (ng/mL or ng/g): 161 (Brain) | (B) Up284: Up284 Concentration (ng/mL or ng/g): 9214 (Brain)

The structures appear in SMILES notation. Converted amounts (≈) assume the structure as drawn. Where two headings read alike, the source gives them in different places.

hERG potassium channel, sequence (Q12809 whole entry): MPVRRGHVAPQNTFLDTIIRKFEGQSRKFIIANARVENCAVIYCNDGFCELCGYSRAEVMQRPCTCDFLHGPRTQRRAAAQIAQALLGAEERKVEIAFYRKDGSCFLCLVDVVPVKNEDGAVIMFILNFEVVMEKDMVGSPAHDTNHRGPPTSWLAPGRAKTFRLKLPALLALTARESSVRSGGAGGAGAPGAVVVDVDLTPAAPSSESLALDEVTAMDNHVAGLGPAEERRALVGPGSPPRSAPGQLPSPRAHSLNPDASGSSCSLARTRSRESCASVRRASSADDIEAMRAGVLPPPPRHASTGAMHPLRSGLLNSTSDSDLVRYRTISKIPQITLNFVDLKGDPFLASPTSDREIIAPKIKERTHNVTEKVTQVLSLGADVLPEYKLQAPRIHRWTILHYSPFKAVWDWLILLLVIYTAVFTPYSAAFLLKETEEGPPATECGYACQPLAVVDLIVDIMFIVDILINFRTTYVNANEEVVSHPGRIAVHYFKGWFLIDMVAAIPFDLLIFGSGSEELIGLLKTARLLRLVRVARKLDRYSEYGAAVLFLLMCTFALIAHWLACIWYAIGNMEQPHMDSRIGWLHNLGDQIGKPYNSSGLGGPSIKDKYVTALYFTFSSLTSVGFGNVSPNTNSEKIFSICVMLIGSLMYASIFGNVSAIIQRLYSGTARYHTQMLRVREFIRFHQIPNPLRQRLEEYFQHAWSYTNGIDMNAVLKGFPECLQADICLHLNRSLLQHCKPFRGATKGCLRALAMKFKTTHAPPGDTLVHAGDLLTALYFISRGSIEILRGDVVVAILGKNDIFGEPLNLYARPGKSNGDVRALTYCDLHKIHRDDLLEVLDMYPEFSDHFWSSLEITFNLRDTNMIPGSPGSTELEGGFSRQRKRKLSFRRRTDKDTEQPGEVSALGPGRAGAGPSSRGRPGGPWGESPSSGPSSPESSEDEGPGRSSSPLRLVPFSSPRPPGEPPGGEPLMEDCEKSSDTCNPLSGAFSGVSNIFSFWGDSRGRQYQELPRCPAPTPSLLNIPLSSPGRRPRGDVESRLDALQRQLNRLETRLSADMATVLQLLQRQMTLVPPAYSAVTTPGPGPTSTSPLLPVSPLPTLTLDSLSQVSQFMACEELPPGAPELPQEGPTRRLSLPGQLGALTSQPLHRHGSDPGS

In the case of `Cl.Cl.N#Cc1ccc(/C=C2/C(=O)/C(=C/c3ccc(C#N)cc3)C23CCN(C(=N)N)CC3)cc1` [RA475, 1,3-bis((E)-4-cyanobenzylidene)-2-oxo-7-azaspiro[3.5]nonane-7-carboximidamide dihydrochloride], the IC50 with LaPC4 worked out at 2030 nM; in the data set with TC1-Ova it was 150 nM; with B6-Ova, 70 nM; in the data set with PACS it was 581 nM; with CT26, 630 nM; with PEA2 (72 h), 356 nM. The figures for the IC50 in the data set on Calu-1, in the data set with HeLa and at hERG potassium channel were 241 nM, 213 nM and 85800 nM, respectively. The solubility at 2 h in data set [1] (kinetic, 2% DMSO, 25°C, 2 h, read-out: PBS solubility, pH 7.4, Incubation 1) came to 136 µM; in data set [1] (kinetic, 2% DMSO, 25°C, 2 h, read-out: PBS solubility, pH 7.4, Incubation 2), 138 µM; in data set [1] (kinetic, 2% DMSO, 25°C, 2 h, read-out: PBS solubility, pH 7.4, Mean), 137 µM. Moreover, in data set [2] (40 mg/kg IV), the tissue accumulation result was “accumulated primarily in kidneys and liver”. Also, the Concentration in brain in data set [2] is 161 ng/mL or ng/g.

Take `N#Cc1ccc(/C=C2/C(=O)/C(=C/c3ccc(C#N)cc3)C23CCNCC3)cc1` [Up284, reference compound]: the half-inhibitory concentration (IC50) in the data set on LaPC4 was 510 nM; in the data set on TC1-Ova, 90 nM; in the data set on B6-Ova, 50 nM; in the data set with PACS it was 125 nM; in the data set on CT26, 50 nM; in the data set with PEA2 (PEA2, 72 h, MTT, read-out: IC50), 144 nM. For the same compound, the values for the IC50 with Calu-1, in the data set on HeLa and against hERG potassium channel were 65 nM, 40 nM and 4300 nM, respectively. This compound yielded a solubility at 2 h in data set [1] of 37 µM (≈ 13.5 µg/mL). The Concentration in brain in data set [2] is 9214 ng/mL or ng/g.

As usually defined, the IC50 is the concentration needed to halve the response being measured. For orientation: solubility means the dissolved amount per volume that the medium holds.

(Values after publication PMC11239005, “Preclinical studies of RA475, a guanidine-substituted spirocyclic candidate RPN13/ADRM1 inhibitor for treatment of ovarian cancer” (PLOS ONE, 2024).)
